Tests used:
[1] = biological target: influenza A neuraminidase (N1) (Influenza A virus, UniProt P03468); assay type: biochemical
influenza neuraminidases = settings: Colman, 1999; cited from earlier work
[2] = test system: bacterial or mammalian neuraminidases; settings: Colman, 1999; cited from earlier work

Chain of influenza A neuraminidase (N1) (P03468 whole entry): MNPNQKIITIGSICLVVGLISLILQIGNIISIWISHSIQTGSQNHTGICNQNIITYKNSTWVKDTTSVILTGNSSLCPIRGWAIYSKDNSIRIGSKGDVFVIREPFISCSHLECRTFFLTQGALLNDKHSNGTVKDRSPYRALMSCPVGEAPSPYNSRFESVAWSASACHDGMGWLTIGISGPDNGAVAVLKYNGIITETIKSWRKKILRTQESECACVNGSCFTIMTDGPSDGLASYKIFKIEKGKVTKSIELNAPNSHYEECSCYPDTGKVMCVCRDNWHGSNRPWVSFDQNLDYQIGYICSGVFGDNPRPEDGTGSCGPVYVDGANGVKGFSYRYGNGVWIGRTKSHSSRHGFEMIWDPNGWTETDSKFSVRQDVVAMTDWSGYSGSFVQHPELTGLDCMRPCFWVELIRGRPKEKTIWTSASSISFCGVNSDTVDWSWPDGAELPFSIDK

| Compound | potency as inhibitor compared with ATA [1] | potency against influenza neuraminidases (influenza neuraminidases) | potency against bacterial or mammalian neuraminidases [2] |
| --- | --- | --- | --- |
| CC(=N)N[C@H]1[C@H]([C@H](NC(C)=O)[C@@H](C)O)OC(C(=O)O)=C[C@@H]1O [Compound 8, 5-acetamidino-7-acetamido-3,5,7,9-tetradeoxy-D-glycero-D-galacto-non-2-enonate] | not as potent an inhibitor as Aurintricarboxylic acid (ATA) | – | – |
| CC(=O)N[C@H]1[C@H]([C@H](O)[C@H](O)CO)OC(C(=O)O)=C[C@@H]1N=C(N)N [zanamivir] | – | very potent | much less potent |

From US8952183B2, “Inhibitors of sialidase or sialidase-like enzymes” (priority 2009, dated 2015)
